Here are results for 25 molecules from ChEMBL document CHEMBL4387739, “Discovery of antichagasic inhibitors by high-throughput screening with Trypanosoma cruzi glucokinase” (Bioorg Med Chem Lett, 2019).

One may read the inhibition as the change of the read-out against control, counted positive when it falls. In general, IC50 refers to the concentration needed to halve the response being measured. The term EC50 denotes the concentration at which the effect is half-maximal.

In series [1] the test system is Trypanosoma cruzi. As to the kind of experiment: Inhibition of Trypanosoma cruzi glucokinase at 20 uM using D-glucose as substrate after 1 hr in presence of ATP and […] by resazurin dye based G6PDH-diaphorase coupled fluorescence assay relative to control. A general note: Alamar Blue is a resazurin reagent that responds to reducing activity.
The species entered for the next series is Homo sapiens. As to the kind of experiment: Inhibition of human glucose-6-phosphate dehydrogenase truncated mutant (29 to 511 residues) at 20 uM in presence of NADP and glucose-6-phosphate by diaphorase/resazurin coupled fluorescence assay relative to control.
For series [2], the system named is Trypanosoma cruzi. Nature of the series: Antitrypanosomal activity against Trypanosoma cruzi Tulahuen […] infected in mouse NIH/3T3 cells assessed as parasite viability at 80 uM by beta-galactosidase reporter gene assay relative to control. It is filed as functional. (In a reporter assay the amount or activity of a reporter protein is the signal.)
Series [3] can be described thus: Inhibition of Trypanosoma cruzi glucokinase using D-glucose as substrate in presence of ATP and […] measured for every 30 secs for 10 mins by resazurin dye based G6PDH-diaphorase coupled fluorescence assay relative to control.
Series [4] can be described thus: Cytotoxicity against mouse NIH/3T3 cells after 72 hrs by alamar blue assay. The format is cell-based, NIH3T3. The settings on record: read-out: TC50.
The test system of series [5] is Trypanosoma cruzi. As to the kind of experiment: Antitrypanosomal activity against Trypanosoma cruzi Tulahuen […] infected in mouse NIH/3T3 cells assessed as reduction in parasite viability by beta-galactosidase reporter gene assay. The format is functional, organism-based. The settings on record: NIH3T3.

For `COc1ccc(Br)cc1C1C(C#N)=C(N)Oc2c1c(C)nn2-c1ccccc1` (stereo not drawn), the results for the inhibition in the series with Trypanosoma cruzi [1] and in the series listed under Homo sapiens were 72.9% and 14%, respectively. Further, the Activity in the series with Trypanosoma cruzi [2] is recorded as 0%.
With `Cc1cc2c(c(O)c1-c1c(C)cc3c(c1O)/C(=C/Nc1c(O)cc(S(=O)(=O)O)c4ccccc14)C(=O)C(O)=C3C(C)C)/C(=C/Nc1c(O)cc(S(=O)(=O)O)c3ccccc13)C(=O)C(O)=C2C(C)C`, the inhibition came to 57.8% in the series with Trypanosoma cruzi [1] and 9.4% in the series filed under Homo sapiens. Further, in the series with Trypanosoma cruzi [2], the Activity stood at 20.4%. The IC50 in series [3] was 30.2 µM.
Consider `N#CCCOCCC#CCN1CCCC[C@@H]1c1cccnc1`, for which the inhibition turned out to be 36.7% in the series with Trypanosoma cruzi [1] and 9.2% in the series listed under Homo sapiens. Further, in the series on Trypanosoma cruzi [2], the Activity is on record as 50.5%.
As to `CCOc1ccc([C@@H]2Oc3ccc(Br)cc3C=C2[N+](=O)[O-])cc1OC`, the inhibition with Trypanosoma cruzi [1] was 43.8%; in the series listed under Homo sapiens it was 8.2%. Besides, the Activity in the series on Trypanosoma cruzi [2] was 0%. Further, the CC50 at 72 h in series [4] came to 80.7 µM. Further, the IC50 in series [3] was found to be 6.1 µM. In the series with Trypanosoma cruzi [5], the concentration giving a half-maximal response (EC50) came out at 2.1 µM.
As for `O=C1NC(=O)C(=Cc2ccc3c(c2)OCO3)C(=O)N1`, the inhibition in the series with Trypanosoma cruzi [1] turned out to be 67%; in the series filed under Homo sapiens, 5.5%. Moreover, the Activity in the series with Trypanosoma cruzi [2] amounted to 81.2%. Besides, in series [3], the IC50 turned out to be 8.7 µM.
With `O=C1C(=Cc2ccco2)C(=O)N(c2ccccc2)C(=O)N1c1ccccc1`, the values for the inhibition with Trypanosoma cruzi [1] and in the series listed under Homo sapiens were 54.8% and 6.6%, respectively. In addition, the Activity in the series on Trypanosoma cruzi [2] is given as 66.5%. The 50% inhibitory concentration (IC50) in series [3] is 0.3 µM.
As for `O=[N+]([O-])C1=Cc2c(ccc3ccccc23)O[C@H]1c1ccc2c(c1)OCO2`, the values for the inhibition in the series on Trypanosoma cruzi [1] and in the series listed under Homo sapiens were 68.4% and 8.2%, respectively. The Activity in the series on Trypanosoma cruzi [2] is reported as 0%.
With `Cc1cc2c(c(O)c1-c1c(C)cc3c(c1O)/C(=C/Nc1cccc4c(N)cccc14)C(=O)C(O)=C3C(C)C)/C(=C/Nc1cccc3c(N)cccc13)C(=O)C(O)=C2C(C)C`, the inhibition was 66.9% in the series with Trypanosoma cruzi [1] and 9.6% in the series listed under Homo sapiens. In the series with Trypanosoma cruzi [2], the Activity was 1.7%. Further, in series [3], the IC50 came to 16.5 µM.
Turning to `COc1ccc(C(=O)Nc2sc3c(c2C(N)=O)CCCCC3)cc1OC`, the inhibition with Trypanosoma cruzi [1] was 42.7%; in the series filed under Homo sapiens it was 12.6%. Moreover, the Activity in the series with Trypanosoma cruzi [2] is on record as 50.5%.
`Cc1nn(-c2ccccc2)c2c1C(c1ccc(F)cc1)C(C#N)=C(N)O2` (stereo not drawn): the inhibition in the series with Trypanosoma cruzi [1] is 55%; in the series filed under Homo sapiens, 2.7%. For the same molecule, in the series on Trypanosoma cruzi [2], the Activity came to 87.1%. Further, in series [3], the IC50 was 17.1 µM.
Take `Cc1nn(-c2cccc(Cl)c2)c2c1C(c1cc([N+](=O)[O-])ccc1Cl)C(C#N)=C(N)O2` (stereo not drawn): the inhibition in the series on Trypanosoma cruzi [1] is 36.8%; in the series listed under Homo sapiens, 1.7%. Further, the Activity with Trypanosoma cruzi [2] is 0%.
Take `OC1(C#CCN2CCCC[C@@H]2c2cccnc2)CCCCCC1`: the inhibition is 64% with Trypanosoma cruzi [1] and 7.8% in the series filed under Homo sapiens. Further, in the series on Trypanosoma cruzi [2], the Activity is listed as 22.6%.
Consider `O=C1NC(=O)C(=Cc2ccc(N3CCOCC3)cc2)C(=O)N1`, for which the inhibition was 49.4% in the series on Trypanosoma cruzi [1] and 1.6% in the series filed under Homo sapiens. In addition, the Activity in the series on Trypanosoma cruzi [2] came out at 88%. The half-maximal inhibitory concentration (IC50) in series [3] is 0.9 µM.
As to `O=C(O)C1Nc2c(I)cccc2C2C=CCC12` (stereo not drawn), the results for the inhibition in the series with Trypanosoma cruzi [1] and in the series listed under Homo sapiens were 74.2% and 19%, respectively. In addition, the Activity in the series with Trypanosoma cruzi [2] is on record as 44.3%.
Regarding `COc1ccc([C@@H]2Oc3ccccc3C=C2[N+](=O)[O-])cc1OC`, the inhibition with Trypanosoma cruzi [1] was found to be 41.5%; in the series listed under Homo sapiens, 8.1%. The Activity in the series with Trypanosoma cruzi [2] came to 0%. For the same molecule, the IC50 in series [3] is 53.2 µM.
As for `CCOc1ccc([C@@H]2Oc3ccccc3C=C2[N+](=O)[O-])cc1OCC`, the results for the inhibition in the series on Trypanosoma cruzi [1] and in the series filed under Homo sapiens were 72.9% and 4.3%, respectively. In addition, the Activity with Trypanosoma cruzi [2] is on record as 0%.
Take `Cc1cc2c(c(O)c1-c1c(C)cc3c(c1O)/C(=C/Nc1ccc(S(=O)(=O)NC(=N)N)cc1)C(=O)C(O)=C3C(C)C)/C(=C/Nc1ccc(S(=O)(=O)NC(=N)N)cc1)C(=O)C(O)=C2C(C)C`: the inhibition in the series with Trypanosoma cruzi [1] was 69.2%; in the series filed under Homo sapiens, 5.8%. The Activity in the series on Trypanosoma cruzi [2] was 0%. For the same molecule, the CC50 at 72 h in series [4] was 45.7 µM. Moreover, in series [3], the IC50 amounted to 14.4 µM. Further, the EC50 with Trypanosoma cruzi [5] was found to be 17.7 µM.
`CN1C(=O)C(=Cc2ccc(N(C)C)cc2)C(=O)N(C)C1=O`: the inhibition came to 63.5% with Trypanosoma cruzi [1] and 10% in the series filed under Homo sapiens. Also, the Activity in the series on Trypanosoma cruzi [2] amounted to 78.9%. Further, in series [3], the 50% inhibitory concentration (IC50) was 5.5 µM.
The matching figures for `O=C1NC(=O)C(=Cc2ccc(Br)s2)C(=O)N1`: 35.9%, 14.8%, 74.2% and 1.6 µM.
Regarding `COc1ccc(S(=O)(=O)Nc2cccc(Br)c2)c(Cl)c1Cl`, the inhibition came out at 42.8% in the series on Trypanosoma cruzi [1] and 17.5% in the series filed under Homo sapiens. In addition, in the series with Trypanosoma cruzi [2], the Activity is recorded as 0%. For the same molecule, in series [4], the CC50 at 72 h was found to be 69 µM. For the same molecule, the IC50 in series [3] amounted to 5.3 µM. Moreover, the EC50 in the series on Trypanosoma cruzi [5] is 15.4 µM.
For `Cc1ccc(-n2nc(C)c3c2OC(N)=C(C#N)C3c2ccoc2)cc1` (stereo not drawn), the inhibition was found to be 46.3% in the series with Trypanosoma cruzi [1] and 19.9% in the series listed under Homo sapiens. The Activity with Trypanosoma cruzi [2] amounted to 80.6%.
Regarding `COc1ccc(Br)cc1/C=C1\C(=O)NC(=O)N(CCC2=CCCCC2)C1=O`, the inhibition with Trypanosoma cruzi [1] worked out at 59.8%; in the series listed under Homo sapiens, 16.3%. Moreover, in the series on Trypanosoma cruzi [2], the Activity stood at 88.7%. Also, the concentration for half-maximal inhibition (IC50) in series [3] is 8 µM.
`Nc1c(C(=O)c2cccc([N+](=O)[O-])c2)sc2nc(-c3cccnc3)ccc12`: the inhibition is 41.8% with Trypanosoma cruzi [1] and 5.1% in the series filed under Homo sapiens. Further, the Activity with Trypanosoma cruzi [2] amounted to 52.7%.
`O=C1NC(=O)C(=Cc2ccc(O)c(O)c2)C(=O)N1`: the inhibition in the series with Trypanosoma cruzi [1] is 79.4%; in the series filed under Homo sapiens it was 2%. In addition, the Activity in the series with Trypanosoma cruzi [2] was found to be 62.8%. Moreover, the IC50 in series [3] worked out at 3.1 µM.
Take `CCOc1ccc([C@@H]2Oc3c(Cl)cc(Cl)cc3C=C2[N+](=O)[O-])cc1OCC`: the inhibition came out at 58.7% with Trypanosoma cruzi [1] and 9.3% in the series filed under Homo sapiens. Besides, the Activity in the series with Trypanosoma cruzi [2] was found to be 0%. Besides, in series [4], the CC50 at 72 h was under 100 µM. The IC50 in series [3] came to 4.8 µM. Moreover, in the series on Trypanosoma cruzi [5], the EC50 was found to be 2.9 µM.
